This note sets out measurements from patent publication US20240360137A1 (Novartis AG, priority 2023, published 2024).

pIC50: −log10 of the molar value.

By pIC50 is commonly meant the IC50 on a negative log10 scale, so that one unit is a factor of ten. Higher therefore signals a small IC50.

Holding throughout (test): CDKi biochemical assay (TR-FRET, phosphorylation of S780 on RB1 peptide)
(In general: Time-resolved FRET reads energy transfer from a long-lived donor to a nearby acceptor.)

The target in test [1] is CDK2/CyclinE1 (Homo sapiens, UniProt P24941). As to conditions: CDK2/CyclinE1 100 pM, 1 mM ATP, 60 min at 25° C. Put shortly:
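CDK2/CyclinE1 (Avi-tag, 100 pM; CDK2 E. coli-expressed) phosphorylated His-MBP-RB1[773-924] (200 nM) at S780 with 1 mM ATP in HEPES pH 7.5/MgCl2/DTT, 60 min at 25° C. After EDTA quench, TR-FRET detection ran 3 h (Eu anti-p-RB S780, SA-APC). Apparent IC50 came from percent activity versus log concentration.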

Test [2] concerns the target CDK1/CyclinB1 (Homo sapiens, UniProt P06493). Conditions: CDK1/CyclinB1 10 pM, 1 mM ATP, 60 min at 25° C. The method in brief:
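CDK1/CyclinB1 (10 pM, Avi-tagged, insect-cell expressed) phosphorylated S780 of His-MBP-RB1[773-924] (200 nM) with 1 mM ATP in HEPES pH 7.5, 10 mM MgCl2, 1 mM DTT, 60 min at 25 °C. After EDTA quench, TR-FRET detection (Eu anti-pRB S780, SA-APC) for 3 h; apparent IC50 from percent activity versus log concentration.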

For test [3], the target named is CDK4/cyclinD1 (Homo sapiens, UniProt P11802). Conditions: CDK4/cyclinD1 20 pM, 1 mM ATP, 60 min at 25° C. Put shortly:
(§1)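 Avi-tagged, biotinylated CDK4/cyclinD1 (20 pM) or CDK6/cyclinD3 (10 pM) phosphorylates 200 nM His-MBP-RB1[773-924] at S780 with 1 mM ATP in HEPES pH 7.5/MgCl2, 60 min, 25° C. After EDTA quench, Eu anti-pRB(S780)/SA-APC TR-FRET is read after 3 h. Apparent IC50 comes from % activity versus log concentration.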

Test [4] addresses CDK6/cyclinD3 (Homo sapiens, UniProt Q00534). Conditions: CDK6/cyclinD3 10 pM, 1 mM ATP, 60 min at 25° C. The method in brief:
as §1

With `O=C1N([C@@H]2CCC[C@@H](O)C2)c2nc(Nc3c[nH]nc3OC[C@H]3COC[C@H]3F)ncc2C12CC2` [Example 75, 2′-((3-((-4-fluorotetrahydrofuran-3-yl)methoxy)-1H-pyrazol-4-yl)amino)-7′-((1R,3R)-3-hydroxycyclohexyl)spiro[cyclopropane-1,5′-pyrrolo[2,3-d]pyrimidin]-6′(7′H)-one], the negative-log IC50 (pIC50) in test [1] is 7.14; in test [2], 5.04; in test [3], ≤ 5.00; in test [4], ≤ 5.00.
As to `O=C1N([C@@H]2CCC[C@@H](O)C2)c2nc(Nc3c[nH]nc3OC3CN(CC(F)(F)F)C3)ncc2C12CC2` [Example 46, 7′-((1R,3R)-3-hydroxycyclohexyl)-2′-((3-((1-(2,2,2-trifluoroethyl)azetidin-3-yl)oxy)-1H-pyrazol-4-yl)amino)spiro[cyclopropane-1,5′-pyrrolo[2,3-d]pyrimidin]-6′(7′H)-one], the negative logarithm of the IC50 (pIC50) was 6.96 in test [1], ≤ 5.00 in test [2], ≤ 5.00 in test [3] and ≤ 5.00 in test [4].
As for `Cc1c(-c2n[nH]cc2Nc2ncc3c(n2)N([C@@H]2CCC[C@@H](O)C2)C(=O)C32CC2)cnn1C` [Example 37, 2′-((1′,5′-dimethyl-1H,1′H-[3,4′-bipyrazol]-4-yl)amino)-7′-((1R,3R)-3-hydroxycyclohexyl)spiro[cyclopropane-1,5′-pyrrolo[2,3-d]pyrimidin]-6′(7′H)-one], the pIC50 in test [1] is 7.51; in test [2], ≤ 5.00; in test [3], ≤ 5.00; in test [4], ≤ 5.00.
Take `O=C1N([C@@H]2CCC[C@@H](O)C2)c2nc(Nc3c[nH]nc3OC3CC3)ncc2C12CC2` [Example 55]: the pIC50 in test [1] is 7.96; in test [2], 5.84; in test [3] it was 5.07; in test [4] it was ≤ 5.00.
Turning to `C[C@]1(O)C[C@H](COc2n[nH]cc2Nc2ncc3c(n2)N([C@@H]2CCC[C@@H](O)C2)C(=O)C32CC2)C1` [Example 65, 2′-((3-(((1r,3R)-3-hydroxy-3-methylcyclobutyl)methoxy)-1H-pyrazol-4-yl)amino)-7′-((1R,3R)-3-hydroxycyclohexyl)spiro[cyclopropane-1,5′-pyrrolo[2,3-d]pyrimidin]-6′(7′H)-one], the pIC50 was 7.28 in test [1], 5.35 in test [2], 5.16 in test [3] and ≤ 5.00 in test [4].
For the compound `O=C1N([C@@H]2CCC[C@@H](O)C2)c2nc(Nc3c[nH]nc3C3CC3(F)F)ncc2C12CC2` (single isomer, unassigned) [Example 32], the negative logarithm of the IC50 (pIC50) is 8.22 in test [1], 6.47 in test [2], 5.56 in test [3] and 5.32 in test [4].
The matching figures for `[2H]C([2H])([2H])Oc1n[nH]cc1Nc1ncc2c(n1)N([C@@H]1CCC[C@@H](O)C1)C(=O)C21CC1` [Example 49, 7′-((1R,3R)-3-hydroxycyclohexyl)-2′-((3-(methoxy-d3)-1H-pyrazol-4-yl)amino)spiro[cyclopropane-1,5′-pyrrolo[2,3-d]pyrimidin]-6′(7′H)-one]: 7.82, 5.58, 5.01 and ≤ 5.00.
The matching figures for `O=C1N([C@@H]2CCC[C@@H](O)C2)c2nc(Nc3c[nH]nc3O[C@H]3COC[C@@H]3F)ncc2C12CC2` [Example 25, 2′-((3-(((3S,4S)-4-fluorotetrahydrofuran-3-yl)oxy)-1H-pyrazol-4-yl)amino)-7′-((1R,3R)-3-hydroxycyclohexyl)spiro[cyclopropane-1,5′-pyrrolo[2,3-d]pyrimidin]-6′(7′H)-one]: 7.62, 5.61, ≤ 5.00 and ≤ 5.00.
Turning to `O=C1N([C@@H]2CCC[C@@H](O)C2)c2nc(Nc3c[nH]nc3-c3cnn(C(F)F)c3)ncc2C12CC2` [Example 34, 2′-((1′-(difluoromethyl)-1H,1′H-[3,4′-bipyrazol]-4-yl)amino)-7′-((1R,3R)-3-hydroxycyclohexyl)spiro[cyclopropane-1,5′-pyrrolo[2,3-d]pyrimidin]-6′(7′H)-one], the pIC50 in test [1] is 8.00; in test [2], 5.64; in test [3], 5.48; in test [4], 5.48.
For the compound `O=C1N([C@@H]2CCC[C@@H](O)C2)c2nc(Nc3c[nH]nc3C(F)F)ncc2C12CC2` [Example 3, 2′-((3-(difluoromethyl)-1H-pyrazol-4-yl)amino)-7′-((1R,3R)-3-hydroxycyclohexyl)spiro[cyclopropane-1,5′-pyrrolo[2,3-d]pyrimidin]-6′(7′H)-one], the pIC50 was 8.15 in test [1], 6.09 in test [2], 5.56 in test [3] and 5.42 in test [4].
On the same counts, the results for `COCCOc1n[nH]cc1Nc1ncc2c(n1)N([C@@H]1CCC[C@@H](O)C1)C(=O)C21CC1` [Example 22, 7′-((1R,3R)-3-hydroxycyclohexyl)-2′-((3-(2-methoxyethoxy)-1H-pyrazol-4-yl)amino)spiro[cyclopropane-1,5′-pyrrolo[2,3-d]pyrimidin]-6′(7′H)-one] are 7.47, 5.53, 5.28 and 5.09.
With `Cc1n[nH]cc1Nc1ncc2c(n1)N([C@H]1C[C@H](O)CC(C)(C)C1)C(=O)C21CC1` [Example 7, 7′-((1R,5R)-5-hydroxy-3,3-dimethylcyclohexyl)-2′-((3-methyl-1H-pyrazol-4-yl)amino)spiro[cyclopropane-1,5′-pyrrolo[2,3-d]pyrimidin]-6′(7′H)-one], the negative-log IC50 (pIC50) in test [1] was 6.87; in test [2] it was 5.22; in test [3] it was 5.41; in test [4] it was 5.66.
On the same counts, the results for `O=C1N([C@@H]2CCC[C@@H](O)C2)c2nc(Nc3c[nH]nc3C3CC3)ncc2C12CC2` [Example 14, 2′-((3-cyclopropyl-1H-pyrazol-4-yl)amino)-7′-((1R,3R)-3-hydroxycyclohexyl)spiro[cyclopropane-1,5′-pyrrolo[2,3-d]pyrimidin]-6′(7′H)-one] are 7.52, 5.81, ≤ 5.00 and ≤ 5.00.
On the same counts, the results for `O=C1N([C@@H]2CCC[C@@H](O)C2)c2nc(Nc3c[nH]nc3OCC(F)(F)F)ncc2C12CC2` [Example 56, 7′-((1R,3R)-3-hydroxycyclohexyl)-2′-((3-(2,2,2-trifluoroethoxy)-1H-pyrazol-4-yl)amino)spiro[cyclopropane-1,5′-pyrrolo[2,3-d]pyrimidin]-6′(7′H)-one] are 8.00, 6.10, 5.50 and 5.20.
With `O=C1N([C@@H]2CCC[C@@H](O)C2)c2nc(Nc3c[nH]nc3O[C@@H]3CCOC3)ncc2C12CC2` [Example 63, 7′-((1R,3R)-3-hydroxycyclohexyl)-2′-((3-(((R)-tetrahydrofuran-3-yl)oxy)-1H-pyrazol-4-yl)amino)spiro[cyclopropane-1,5′-pyrrolo[2,3-d]pyrimidin]-6′(7′H)-one], the pIC50 was 7.37 in test [1], 5.43 in test [2], ≤ 5.00 in test [3] and ≤ 5.00 in test [4].
Take `COCc1n[nH]cc1Nc1ncc2c(n1)N([C@@H]1CCC[C@@H](O)C1)C(=O)C21CC1` [Example 21, 7′-((1R,3R)-3-hydroxycyclohexyl)-2′-((3-(methoxymethyl)-1H-pyrazol-4-yl)amino)spiro[cyclopropane-1,5′-pyrrolo[2,3-d]pyrimidin]-6′(7′H)-one]: the pIC50 was 7.77 in test [1], 5.60 in test [2], 5.65 in test [3] and 5.35 in test [4].
The matching figures for `O=C1N([C@@H]2CCC[C@@H](O)C2)c2nc(Nc3c[nH]nc3C(F)(F)F)ncc2C12CC2` [Example 15, 7′-((1R,3R)-3-hydroxycyclohexyl)-2′-((3-(trifluoromethyl)-1H-pyrazol-4-yl)amino)spiro[cyclopropane-1,5′-pyrrolo[2,3-d]pyrimidin]-6′(7′H)-one]: 7.41, 5.43, ≤ 5.00 and ≤ 5.00.
Turning to `O=C1N([C@@H]2CCC[C@@H](O)C2)c2nc(Nc3c[nH]nc3C#Cc3cccnc3)ncc2C12CC2` [Example 36, 7′-((1R,3R)-3-hydroxycyclohexyl)-2′-((3-(pyridin-3-ylethynyl)-1H-pyrazol-4-yl)amino)spiro[cyclopropane-1,5′-pyrrolo[2,3-d]pyrimidin]-6′(7′H)-one], the pIC50 was 7.41 in test [1], 5.30 in test [2], ≤ 5.00 in test [3] and ≤ 5.00 in test [4].
